Where two headings read alike, the source gives them in different places. Where only a bound is given, the exact number is not on record here.

For one experiment, the target named is T1, human TLR8 (Homo sapiens, UniProt Q9NR97).
T1 construct: expressed in transfected cells
T1 sequence (Q9NR97 27-1041): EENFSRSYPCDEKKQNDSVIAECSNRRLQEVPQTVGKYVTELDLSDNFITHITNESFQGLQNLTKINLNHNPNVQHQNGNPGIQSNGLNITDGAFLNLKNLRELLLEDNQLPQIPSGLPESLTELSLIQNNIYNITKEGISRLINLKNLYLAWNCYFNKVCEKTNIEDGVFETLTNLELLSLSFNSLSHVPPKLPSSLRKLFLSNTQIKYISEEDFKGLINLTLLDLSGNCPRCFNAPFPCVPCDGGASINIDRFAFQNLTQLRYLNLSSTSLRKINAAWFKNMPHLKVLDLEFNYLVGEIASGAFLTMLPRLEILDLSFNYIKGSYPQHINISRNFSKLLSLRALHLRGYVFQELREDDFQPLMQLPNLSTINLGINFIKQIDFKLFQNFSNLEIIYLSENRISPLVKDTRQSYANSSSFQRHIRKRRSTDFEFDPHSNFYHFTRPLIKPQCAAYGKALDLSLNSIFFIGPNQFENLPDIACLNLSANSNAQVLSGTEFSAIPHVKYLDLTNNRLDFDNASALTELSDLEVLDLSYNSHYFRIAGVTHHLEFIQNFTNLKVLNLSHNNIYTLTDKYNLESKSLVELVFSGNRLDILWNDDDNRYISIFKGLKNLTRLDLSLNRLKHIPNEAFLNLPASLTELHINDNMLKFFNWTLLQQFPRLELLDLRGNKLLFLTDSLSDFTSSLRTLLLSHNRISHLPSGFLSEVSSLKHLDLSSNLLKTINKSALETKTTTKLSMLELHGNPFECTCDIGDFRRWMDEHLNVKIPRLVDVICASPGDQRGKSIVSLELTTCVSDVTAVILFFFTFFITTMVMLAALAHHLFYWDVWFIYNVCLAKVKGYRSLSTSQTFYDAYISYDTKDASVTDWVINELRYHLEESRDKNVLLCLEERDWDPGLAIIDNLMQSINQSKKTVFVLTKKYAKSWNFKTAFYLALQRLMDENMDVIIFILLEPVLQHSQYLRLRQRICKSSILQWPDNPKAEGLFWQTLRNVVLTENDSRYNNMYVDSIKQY
Put plainly: HEK-Blue hTLR8 SEAP reporter gene inhibition assay. The note with it: read-out: HEK-Blue hTLR8 IC50. The experiment is classed as cell-based. The method in brief:
(§1)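 HEK-Blue cells stably expressing hTLR7 (80,000/well) or hTLR8 (60,000/well), SEAP under IFN-β minimal promoter with five NF-κB/AP-1 sites. Compounds (0.001–36 µM final) preincubated 15 min, then 10 µM ligand (Gardiquimod for TLR7) for 20 h. SEAP read with Quanti-Blue; IC50 calculated.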
(In general: A reporter such as luciferase makes a cellular process visible.)

The target of another experiment is T2, human TLR7 (Homo sapiens, UniProt Q9NYK1).
T2 sequence (Q9NYK1 27-1049): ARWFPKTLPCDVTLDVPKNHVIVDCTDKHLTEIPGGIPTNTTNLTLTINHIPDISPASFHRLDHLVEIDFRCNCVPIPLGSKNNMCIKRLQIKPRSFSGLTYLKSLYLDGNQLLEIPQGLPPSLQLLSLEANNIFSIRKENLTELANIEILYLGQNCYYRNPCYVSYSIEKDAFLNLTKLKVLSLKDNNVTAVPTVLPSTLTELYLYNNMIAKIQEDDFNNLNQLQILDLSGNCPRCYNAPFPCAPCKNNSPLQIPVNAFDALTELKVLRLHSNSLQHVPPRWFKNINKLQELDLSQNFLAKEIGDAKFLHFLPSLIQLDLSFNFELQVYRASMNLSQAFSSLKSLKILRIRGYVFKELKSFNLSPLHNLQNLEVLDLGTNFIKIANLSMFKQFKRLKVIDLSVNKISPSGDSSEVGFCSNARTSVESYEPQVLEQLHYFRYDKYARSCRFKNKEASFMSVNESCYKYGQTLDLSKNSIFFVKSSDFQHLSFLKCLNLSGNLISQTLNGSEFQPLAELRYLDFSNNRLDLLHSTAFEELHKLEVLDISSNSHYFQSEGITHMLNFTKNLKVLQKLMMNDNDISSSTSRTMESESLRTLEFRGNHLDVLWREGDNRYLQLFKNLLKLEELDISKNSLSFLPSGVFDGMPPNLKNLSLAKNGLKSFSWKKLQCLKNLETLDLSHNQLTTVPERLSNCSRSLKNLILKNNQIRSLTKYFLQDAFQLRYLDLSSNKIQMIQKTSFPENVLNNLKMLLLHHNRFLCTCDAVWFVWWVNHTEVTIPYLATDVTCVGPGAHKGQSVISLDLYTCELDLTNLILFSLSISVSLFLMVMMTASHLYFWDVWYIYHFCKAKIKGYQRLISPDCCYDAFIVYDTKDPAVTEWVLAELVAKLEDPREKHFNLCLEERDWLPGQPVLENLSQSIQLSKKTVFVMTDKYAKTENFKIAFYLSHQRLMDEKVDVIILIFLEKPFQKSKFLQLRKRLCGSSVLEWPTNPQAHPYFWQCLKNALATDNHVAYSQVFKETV
The experiment in a line: HEK-Blue hTLR7 SEAP reporter gene inhibition assay. The experiment is classed as cell-based. The note with it: read-out: HEK-Blue hTLR7 IC50. The method, boiled down: as §1

Where [1] appears, read: hTLR8 HEK-Blue cells, TLR8 ligand 10 µM, 20 hours, SEAP by Quanti-blue, class symbols.
Where [2] appears, read: hTLR7 HEK-Blue cells, TLR7 ligand Gardiquimod 10 µM, 20 hours, SEAP by Quanti-blue, class symbols.

One may read the IC50 as the concentration that inhibits the measured activity by half. For the compound `C[C@@H]1CN(c2ccc(C#N)n3ncc(F)c23)Cc2c3c(nn21)CN(C(CO)CO)[C@@H](C)C3` [Example I-159, 4-((4R,9S)-8-(1,3-dihydroxypropan-2-yl)-4,9-dimethyl-3,4,7,8,9,10-hexahydropyrido [3',4':3,4]pyrazolo[1,5-a]pyrazin-2(1H)-yl)-3-fluoropyrazolo[1,5-a]pyridine-7-carbonitrile], the values for the 50% inhibitory concentration (IC50) at human TLR8 (setting [1]) and at human TLR7 (setting [2]) were > 100 nM and > 50 nM, respectively.
As to `C[C@@H]1CN(c2ccc(C#N)n3ncc(F)c23)Cc2c3c(nn21)CN(C[C@H](O)CO)[C@@H](C)C3` [Example I-160, 4-((4R,9S)-8-((S)-2,3-dihydroxypropyl)-4,9-dimethyl-3,4,7,8,9,10-hexahydropyrido[3',4':3,4]pyrazolo[1,5-a]pyrazin-2(1H)-yl)-3-fluoropyrazolo[1,5-a]pyridine-7-carbonitrile], the IC50 on human TLR8 (setting [1]) was > 100 nM; at human TLR7 (setting [2]), > 50 nM.
Regarding `C[C@@H]1Cc2c(nn3c2CN(c2ccc(C#N)n4ncc(F)c24)C[C@H]3C)[C@H](C)N1CC(N)=O` [Example I-165, 2-((4R,7S,9R)-2-(7-cyano-3-fluoropyrazolo[1,5-a]pyridin-4-yl)-4,7,9-trimethyl-1,2,3,4,9,10-hexahydropyrido[3',4':3,4]pyrazolo[1,5-a]pyrazin-8(7H)-yl)acetamide], the IC50 is > 100 nM at human TLR8 (setting [1]) and < 50 nM on human TLR7 (setting [2]).
On the same counts, the results for `C[C@@H]1CN(c2ccc(C#N)n3ncc(F)c23)Cc2c3c(nn21)CN(C1CCC1O)[C@@H](C)C3` (stereo partly drawn) [Example I-174, 3-Fluoro-4-((4R,9S)-8-(2-hydroxycyclobutyl)-4,9-dimethyl-3,4,7,8,9,10-hexahydropyrido[3',4':3,4]pyrazolo[1,5-a]pyrazin-2(1H)-yl)pyrazolo[1,5-a]pyridine-7-carbonitrile] are > 100 nM and < 50 nM.
For `C[C@@H]1CN(c2ccc(C#N)n3ncc(F)c23)Cc2c3c(nn21)CN(CC1(N)COC1)[C@@H](C)C3` [Example I-184, 4-((4R,9S)-8-((3-aminooxetan-3-yl)methyl)-4,9-dimethyl-3,4,7,8,9,10-hexahydropyrido[3',4':3,4]pyrazolo[1,5-a]pyrazin-2(1H)-yl)-3-fluoropyrazolo[1,5-a]pyridine-7-carbonitrile] the same measures were > 100 nM and > 50 nM.
Turning to `C[C@@H]1CN(c2ccc(C#N)n3ncc(F)c23)Cc2c3c(nn21)C[C@](C)(N1CCC(O)C1)CC3` (stereo partly drawn) [Example I-187, 3-Fluoro-4-((4R,8R)-8-(3-hydroxypyrrolidin-1-yl)-4,8-dimethyl-3,4,7,8,9,10-hexahydropyrazino[1,2-b]indazol-2(1H)-yl)pyrazolo[1,5-a]pyridine-7-carbonitrile], the figures for the IC50 on human TLR8 (setting [1]) and at human TLR7 (setting [2]) were < 100 nM and < 50 nM, respectively.
For `C[C@@H]1CN(c2ccc(C#N)n3ncc(F)c23)Cc2c3c(nn21)C[C@@](C)(N1CCC(O)C1)CC3` (stereo partly drawn) [Example I-188, 3-Fluoro-4-((4R,8S)-8-(3-hydroxypyrrolidin-1-yl)-4,8-dimethyl-3,4,7,8,9,10-hexahydropyrazino[1,2-b]indazol-2(1H)-yl)pyrazolo[1,5-a]pyridine-7-carbonitrile] the same measures were < 100 nM and > 50 nM.
`COC(=O)C1(CN2Cc3nn4c(c3C[C@@H]2C)CN(c2ccc(C#N)n3ncc(F)c23)C[C@H]4C)CC1` [Example I-192, Methyl 1-(((4R,9S)-2-(7-cyano-3-fluoropyrazolo [1,5-a]pyridin-4-yl)-4,9-dimethyl-1,2,3,4,9,10-hexahydropyrido[3',4':3,4]pyrazolo[1,5-a]pyrazin-8(7H)-yl)methyl) cyclopropane-1-carboxylate]: the IC50 is < 100 nM at human TLR8 (setting [1]) and > 50 nM on human TLR7 (setting [2]).
For `C[C@@H]1CN(c2ccc(C#N)n3ncc(F)c23)Cc2c3c(nn21)CN(CC12CC(C(N)=O)(C1)C2)[C@@H](C)C3` [Example I-193, 3-(((4R,9S)-2-(7-cyano-3-fluoropyrazolo [1,5-a]pyridin-4-yl)-4,9-dimethyl-1,2,3,4,9,10-hexahydropyrido[3',4':3,4]pyrazolo[1,5-a]pyrazin-8(7H)-yl)methyl)bicyclo[1.1.1] pentane-1-carboxamide] the same measures were < 100 nM and > 50 nM.
In the case of `C[C@@H]1CN(c2ccc(C#N)n3ncc(F)c23)Cc2c3c(nn21)CN(CC(C)(C)C(N)=O)[C@@H](C)C3` [Example I-198, 3-((4R,9S)-2-(7-cyano-3-fluoropyrazolo[1,5-a]pyridin-4-yl)-4,9-dimethyl-1,2,3,4,9,10-hexahydropyrido[3',4':3,4]pyrazolo[1,5-a]pyrazin-8(7H)-yl)-2,2-dimethyl propanamide], the IC50 is > 100 nM at human TLR8 (setting [1]) and > 50 nM at human TLR7 (setting [2]).
As for `C[C@@H]1CN(c2ccc(C#N)n3ncc(F)c23)Cc2c3c(nn21)CN(CC1(C(N)=O)CC1)[C@@H](C)C3` [Example I-204, 1-(((4R,9S)-2-(7-cyano-3-fluoropyrazolo [1,5-a]pyridin-4-yl)-4,9-dimethyl-1,2,3,4,9,10-hexahydropyrido[3',4':3,4]pyrazolo[1,5-a]pyrazin-8(7H)-yl)methyl)cyclopropane-1-carboxamide], the values for the half-inhibitory concentration (IC50) on human TLR8 (setting [1]) and on human TLR7 (setting [2]) were > 100 nM and < 50 nM, respectively.
For `C[C@@H]1CN(c2ccc(C#N)n3ncc(F)c23)Cc2c3c(nn21)CN(C[C@@](C)(O)CO)[C@@H](C)C3` [Example I-224, 4-((4R,9S)-8-((R)-2,3-dihydroxy-2-methylpropyl)-4,9-dimethyl-3,4,7,8,9,10-hexahydropyrido[3',4':3,4]pyrazolo[1,5-a]pyrazin-2(1H)-yl)-3-fluoropyrazolo[1,5-a]pyridine-7-carbonitrile], the IC50 at human TLR8 (setting [1]) is < 100 nM; on human TLR7 (setting [2]), < 50 nM.
Take `C[C@@H]1CN(c2ccc(C#N)n3ncc(F)c23)Cc2c3c(nn21)CN(CC(C)(CO)CO)[C@@H](C)C3` [Example I-225, 3-Fluoro-4-((4R,9S)-8-(3-hydroxy-2-(hydroxymethyl)-2-methylpropyl)-4,9-dimethyl-3,4,7,8,9,10-hexahydropyrido[3',4':3,4]pyrazolo[1,5-a]pyrazin-2(1H)-yl)pyrazolo[1,5-a]pyridine-7-carbonitrile]: the figures for the IC50 on human TLR8 and at human TLR7 were > 100 nM and > 50 nM, respectively.
Consider `C[C@@H]1CN(c2ccc(C#N)n3ncc(F)c23)Cc2c3c(nn21)CN(C[C@](C)(O)CO)[C@@H](C)C3` [Example I-226, 4-((4R,9S)-8-((S)-2,3-dihydroxy-2-methylpropyl)-4,9-dimethyl-3,4,7,8,9,10-hexahydropyrido[3',4':3,4]pyrazolo[1,5-a]pyrazin-2(1H)-yl)-3-fluoropyrazolo[1,5-a]pyridine-7-carbonitrile], for which the results for the IC50 at human TLR8 (setting [1]) and at human TLR7 (setting [2]) were > 100 nM and < 50 nM, respectively.

For the origin of these results see patent publication EP4644396A1 (Visionpharma (Nantong) Co., Ltd, priority 2022, dated 2024).
